Test results: patent US9034922B2, “Composition for maintaining function of platelets” (THE UNIVERSITY OF TOKYO, priority 2010, dated 2015)

Experiments:
ADAM17 = target: T1, ADAM17 (Homo sapiens, UniProt P78536); assay: ADAM17 inhibition experiment (fluorescent synthetic substrate); format: biochemical; conditions: from Table 3
T1 construct: made in house; host or cells: mammalian cells or insect cells
Protocol: The cDNA was incorporated into an expression vector. Then, this vector was transfected into mammalian cells or insect cells, and ADAM17 was expressed and obtained.
Next, the activity of ADAM17 was measured, as follows in the presence or absence of the test substances, in which obtained ADAM17 was used as an enzyme, and a fluorescent synthetic substrate Nma (N-methyl anthranilate)-[…]Dnp (dinitrophenyl)-D-Arg-NH2 containing an ADAM17-cleavage sequence of membrane-bound TNF was used as a substrate.
Specifically, 90 μL of 14 units of an enzyme solution (1 unit is defined as an amount of enzyme degrading […] of the substrate in 1 minute at 25° C.) prepared with Assay Buffer A (50 mmol/L Tris-HCl buffer (pH 7.5) containing 200 mmol/L sodium chloride, 5 mmol/L calcium chloride, 10 μmol/L zinc sulfate, and 2 mg/mL bovine serum albumin) was mixed with 90 μL of the fluorescent synthetic substrate adjusted to be 20 μmol/L with Assay Buffer B (50 mmol/L Tris-HCl buffer (pH 7.5) containing 200 mmol/L sodium chloride, 5 mmol/L calcium chloride, 10 μmol/L zinc sulfate, and 0.05% PLURONIC F-68), and allowed for reaction at 37° C. for 1.5 hours. Thereafter, the enzyme activity was determined by measurement using a fluorometer (Fluoroskan Ascent) under conditions of an excitation wavelength of 355 nm and a measurement wavelength of 460 nm. Then, an inhibition rate was obtained based on the enzyme activities in the presence and absence of the test compounds, and the 50% inhibitory concentration (IC50) was calculated.
A disintegrin and metalloproteinase 17 (ADAM17, TACE) (used was one prepared at Kaken Pharmaceutical Co., Ltd. by employing the genetic recombination in the same way as in Test Example 3. Note that, the same as in Test Example 3, 1 unit is defined as an amount of enzyme degrading 1 pmol of substrate in 1 minute at 25° C.)
TACE substrate (the same as one used in Test Example 3): excitation wavelength at 355 nm, emission wavelength at 460 nm
(§1) The enzyme reaction was carried out using the enzymes and substrates. Specifically, if necessary, the enzyme was activated in advance with APMA (final concentration 1 mmol/L, p-aminophenylmercuric acetate, manufactured by Sigma-Aldrich Co., A9563) according to information from the manufacturer. Then, in a 96-well plate for fluorescence measurement, 90 μL of an enzyme solution prepared with Assay Buffer A (50 mmol/L Tris-HCl buffer (pH 7.5) containing 200 mmol/L sodium chloride, 5 mmol/L calcium chloride, 10 μmol/L zinc sulfate, and 2 mg/mL bovine serum albumin) was mixed with 90 μL of the substrate adjusted to be 20 μmol/L with Assay Buffer B (50 mmol/L Tris-HCl buffer (pH 7.5) containing 200 mmol/L sodium chloride, 5 mmol/L calcium chloride, 10 μmol/L zinc sulfate, and 0.05% PLURONIC F-68), and incubated for reaction at 25° C. or 37° C. for several hours. Moreover, the fluorescence intensities before and after the reaction were measured using a fluorometer to determine the enzyme activity. An inhibition rate was obtained based on the enzyme activities in the presence and absence of the test substances, and the 50% inhibitory concentration (IC50) was calculated.

[1] = target: T2, Matrix metalloproteinase 8 (MMP-8) (Homo sapiens, UniProt P22894); assay: Enzyme inhibition experiment, MMP-8; format: biochemical; conditions: 3163 substrate, 37° C., 5 hours
T2 construct: purchased Calbiochem 444229
T2 sequence (P22894 101-467): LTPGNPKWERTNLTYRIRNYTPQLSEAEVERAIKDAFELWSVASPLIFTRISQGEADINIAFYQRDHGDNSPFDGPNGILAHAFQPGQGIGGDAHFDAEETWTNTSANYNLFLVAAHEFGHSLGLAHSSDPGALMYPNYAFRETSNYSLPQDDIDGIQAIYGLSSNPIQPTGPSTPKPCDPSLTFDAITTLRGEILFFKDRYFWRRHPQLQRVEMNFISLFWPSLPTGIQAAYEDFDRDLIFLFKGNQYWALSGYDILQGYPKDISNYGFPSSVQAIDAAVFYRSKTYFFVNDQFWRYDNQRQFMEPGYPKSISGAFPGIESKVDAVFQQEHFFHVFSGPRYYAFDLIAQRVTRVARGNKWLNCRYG
Protocol: as §1, with “activity.” for “activity. An inhibition rate was obtained based on the enzyme activities in the presence and absence of the test substances, and the 50% inhibitory concentration (IC50) was calculated.”

[2] = target: T3, TACE expressed on the macrophage-like cells (THP-1) (Homo sapiens, UniProt P78536); assay: Cellular TACE inhibition experiment (LPS-induced TNF-α production in PMA-differentiated THP-1 cells); format: cell-based; conditions: for IC50: THP-1 macrophage-like cells, LPS 1 μg/mL, 6 hours, read-out: IC50 TNFα production
T3 construct: host or cells: THP-1 cells differentiated with PMA into macrophage-like cells
T3 sequence (P78536 215-824): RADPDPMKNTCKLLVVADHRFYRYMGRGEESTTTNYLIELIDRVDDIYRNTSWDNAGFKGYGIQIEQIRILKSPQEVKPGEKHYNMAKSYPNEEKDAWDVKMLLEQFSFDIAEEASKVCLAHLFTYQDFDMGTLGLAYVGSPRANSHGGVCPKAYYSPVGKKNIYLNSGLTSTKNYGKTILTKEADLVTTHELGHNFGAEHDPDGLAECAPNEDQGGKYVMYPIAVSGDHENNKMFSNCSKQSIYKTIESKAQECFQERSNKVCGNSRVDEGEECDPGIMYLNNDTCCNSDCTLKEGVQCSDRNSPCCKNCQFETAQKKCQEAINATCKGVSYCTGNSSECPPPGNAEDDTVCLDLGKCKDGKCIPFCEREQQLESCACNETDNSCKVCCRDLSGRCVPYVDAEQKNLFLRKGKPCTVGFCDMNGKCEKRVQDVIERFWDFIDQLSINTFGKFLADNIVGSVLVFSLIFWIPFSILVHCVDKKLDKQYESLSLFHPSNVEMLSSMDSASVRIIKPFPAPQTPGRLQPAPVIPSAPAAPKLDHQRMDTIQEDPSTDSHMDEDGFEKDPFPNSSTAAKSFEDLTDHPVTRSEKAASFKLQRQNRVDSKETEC
Protocol: After the differentiation, the medium was discarded, and the cells were washed with THP-1 washing buffer (RPMI 1640, 20 mM HEPES-NaOH (pH 7.4)). After the washing of the cells, a THP-1 assay buffer (RPMI 1640, 20 mmol/L HEPES-NaOH (pH 7.4), 0.01 w/v % PF-68, 10 v/v % FBS) was added thereto at 100 μL/well. Then, a THP-1 assay buffer containing the test substance (I-1 or 1-4) was further added at 50 μL/well and mixed by tapping. After incubation in a CO2 incubator for 30 to 45 minutes, a THP-1 assay buffer containing LPS was added at 50 μL/well (the final concentration of LPS was 1 μg/mL). Further, the plate was tapped for mixing, followed by incubation in the CO2 incubator for 6 hours. After the incubation was finished, human TNF-α concentration in the culture supernatant was measured with a commercially available kit (Human TNF-α CytoSet (manufactured by BIOSOURCE) or Human TNF-α Ready-Set-Go! (manufactured by eBioscience, Inc.)).

[3] = tested on: human peripheral blood-derived platelets (ADAM17-mediated GPIbα shedding); assay: Function-maintaining effect on human peripheral blood-derived washed platelets with CCCP (flow cytometry CD41/CD42b); format: cell-based; conditions: Test Example 13; 100 μM CCCP, 37° C., 24 hours; S-45457 50 μM, S-45282 5 μM, p38 inhibitors 40 μM
Protocol: Specifically, according to <Protocol 2> illustrated in FIG. 6, first, ACD was added to human peripheral blood obtained by collecting blood at a ratio of 1:10, and centrifuged at 900 rpm for 10 minutes without a break. The supernatant obtained by the centrifugation was further centrifuged at 1500 rpm for 10 minutes without a break, and then the supernatant was removed. The precipitate thus obtained was suspended in a Tyrode-HEPES buffer (not containing calcium). The number of platelets in the suspension was counted, and the suspension (Washed Platelet) was adjusted to contain 5×10^7 to 1×10^8 of platelets/200 μL of the Tyrode-HEPES buffer (not containing calcium). […] After incubation at 37° C. for 24 hours, the numbers of CD41(+)CD42b(+) and CD41(+)CD42b(−) were counted by flow cytometry.
After incubation at 37° C. for 24 hours, a dot plot analysis on CD41(+) and CD42b(+) was conducted by flow cytometry.
After incubation at 37° C. for 24 hours and flow cytometry analysis, a percentage of CD41(+)CD42b(+) in the platelets was calculated.
After incubation at 37° C. for 24 hours, a total number of platelets and the number of CD42b(+) were counted by flow cytometry, and percentage of CD42b(+) in the platelets was calculated.
After incubation at 37° C. for 24 hours, by flow cytometry, a dot plot analysis on CD41(+) and CD42b(+) was conducted.

[4] = tested on: human peripheral blood PRP (platelet-rich plasma); assay: Function-maintaining effect on human peripheral blood PRP (flow cytometry CD41/CD42b); format: cell-based; conditions: Test Example 12; 37° C., 24 hours or 72 hours; S-45457 50 μM, S-45282 5 μM, p38 inhibitors 40 μM
[5] = tested on: ES cell-derived platelets (ADAM17-mediated GPIbα shedding); assay: Function-maintaining effect on ES cell-derived platelets in culture system (flow cytometry CD41/CD42b, platelet count)
Protocol: As human ES cells (hES cells), a KhES cell line (KhES-3) established by and provided from Institute for Frontier Medical Sciences, Kyoto University was used.
The human ES cells or the human iPS cells were seeded on the feeder cells such that the cell count was 5×10^4 to 1×10^5/10-cm dish. The cells were cultured in Iscove's Modified Dulbecco's Medium (IMDM, manufactured by Invitrogen Corp/GIBCO) supplemented with 15% FBS (product name: CELLect™ GOLD, manufactured by ICN Biomedicals Inc.), 2 mM L-glut amine (manufactured by Invitrogen Corp.), ITS supplement (10 μg/ml insulin, 5.5 mg/ml human transferrin, 5 ng/ml sodium selenite) (manufactured by Sigma-Aldrich Co.), 50 μg/ml ascorbic acid (Sigma-Aldrich Co.), 0.45 mM α-monothioglycerol (MTG, manufactured by Sigma-Aldrich Co.), and 20 ng/ml vascular endothelial growth factor (VEGF, manufactured by R&D Systems, Inc.). Further, this culturing was carried out at 37° C. in 5% CO2 and 21% O2 (atmospheric oxygen) using a CO2 incubator (product name: HERA CELL 150i, manufactured by Thermo Fisher Scientific K. K.). Then, the medium was replaced every 3 days, and the culturing was continued under the conditions until Day 15 when a large number of sac structures (sac-like structures) containing hematopoietic progenitor cells therein were observed.
Next, after detached from the dish, the sac structures were disrupted and suspended in a 3% FBS-containing phosphate buffer solution (PBS). Then, the suspension was passed through a 40-μm cell strainer (manufactured by BD). The solution thus passed through was centrifuged at 440×g for 10 minutes to collect hematopoietic progenitor cells, and the cells was counted. The hematopoietic progenitor cells were seeded on 10T1/2 cells newly prepared in a 6-well plate (6×10^5 cells/plate) exposed to 50-Gy radiation such that the number of the hematopoietic progenitor cells was 2 to 3×10^4/well. The hematopoietic progenitor cells were further cultured for 8 days in IMDM (manufactured by Invitrogen Corp/GIBCO) supplemented with 15% FBS (product name: CELLect™ GOLD, manufactured by ICN Biomedicals Inc.), 2 mM L-glutamine (manufactured by Invitrogen Corp.), ITS supplement (10 μg/ml insulin, 5.5 mg/ml transferrin, 5 ng/ml sodium selenite) (manufactured by Sigma-Aldrich Co.), 50 μg/ml ascorbic acid (manufactured by Sigma-Aldrich Co.), 0.45 mM MTG (manufactured by Sigma-Aldrich Co.), 100 ng/ml human thrombopoietin (human TPO, manufactured by PeproTech, Inc.), 50 ng/ml human stem cell factor (SCF, manufactured by PeproTech, Inc.), and 25 U/ml heparin. Thereby, megakaryocytes/platelets were induced.
Subsequently, the induced megakaryocytes/platelets were collected with an anticoagulant solution (Acid Citrate Dextrose, ACD), followed by centrifugation at 900 rpm for 10 minutes without a break. The supernatant obtained by the centrifugation was further centrifuged at 1500 rpm for 10 minutes without a break to remove the supernatant. Thereafter, the numbers of megakaryocytes and platelets in the precipitate thus obtained were analyzed by flow cytometry using antibodies for staining.
Note that, in the flow cytometry, FACS Aria manufactured by Becton, Dickinson and Company was used. As the antibodies used to stain the megakaryocytes and the platelets, used were a Phycoerythrin (PE)-modified anti-human CD42a (GPIX) antibody, a PE-modified anti-human CD42b (GPIbα) antibody, and an allophycocyanin (APC)-labelled anti-CD41a (integrin αIIbbeta3 complex, HIP8 clone) antibody (manufactured by BD Bioscience). Additionally, in order to accurately measure the absolute numbers of the megakaryocytes and the platelets, the cells were stained with these antibodies, and the analysis was conducted by flow cytometry using TruCount beads (manufactured by BD Bioscience), also.

T1 sequence (P78536 215-824): as above

Row | Compound | specificity to ADAM17 in comparison with metalloproteinases other than ADAM17 (ADAM17) | IC50 [1] [nM] | inhibitory activity on TACE expressed on the macrophage-like cells (in words) [2] | IC50 [2] [nM] | function-maintaining effect on human peripheral blood-derived platelets (dot plot CD41/CD42b) [3] | function-maintaining effect on human peripheral blood PRP [4] | inhibitory effect on GPIbα shedding compared with 50 μM GM6001 ([5]; Test Example 5, S-45282 at 5 μM) | inhibition of ADAM17-mediated GPIbα shedding (CD42b(+) percentage) ([5]; Test Example 5, added for 2 days or 8 days, GM6001 50 μM, S-45282 5 μM or 50 μM) | number of platelets obtained ([5]; Test Example 5, added for 2 days, 50 μM GM6001, 5 μM S-45282) | inhibition of ADAM17-mediated GPIbα shedding ([5]; Test Example 6, 8 days, S-45457 5 μM or 50 μM, GM6001 50 μM) | toxicity to cells (total number of platelets) ([5]; Test Example 7, ES cells and differentiated cells, 1.5 to 50 μM, 8 days) | concentration dependency of inhibition of GPIbα shedding ([5]; Test Example 7, ES cells, S-45457 1.5 to 50 μM, 8 days)
1 | CC#CCOc1ccc(S(=O)(=O)CC(c2ccc(CN(CC)CC)cc2)N(O)C=O)cc1 (stereo not drawn) [Compound I-1, N-[2-(4-But-2-ynyloxybenzenesulfonyl)-1-(4-diethylaminomethylphenyl)ethyl]-N-hydroxyformamide] | high specificity to ADAM17 | 900 | inhibitory activity was confirmed | 1200 | strong function-maintaining effect on human peripheral blood-derived platelets but not as strong as S-45457 | strong effect of maintaining a function of human peripheral blood PRP | inhibitory effect equivalent to 50 μM GM6001 | inhibit ADAM17-mediated GPIbα shedding | approximately the same | – | – | –
2 | CC#CCOc1ccc(S(=O)(=O)CC(c2ccc(CNS(C)(=O)=O)cc2)N(O)C=O)cc1 (stereo not drawn) [Compound I-4, N-{4-[2-(4-But-2-ynyloxybenzenesulfonyl)-1-(formylhydroxyamino)ethyl]benzyl}methanesulfonamide] | high specificity to ADAM17 | 950 | inhibitory activity was confirmed | 625 | suppresses ADAM17-mediated GPIbα (CD42b) shedding | capable of continuously suppressing ADAM17-mediated GPIbα (CD42b) shedding even incubated for 72 hours | – | – | – | inhibits ADAM17-mediated GPIbα shedding | low toxicity | inhibit ADAM17-mediated GPIbα shedding in a manner dependent on the added concentration
